# Laboratory results reported in US20230124862A1, “BISMUTH THIOL COMPOUNDS AND COMPOSITIONS AND METHODS OF TREATING MICROBIAL CO-INFECTIONS” (Microbion Corporation, priority 2020, published 2023).
# Like-named read-outs stand apart in the source and are kept apart here.
# Columns and labels:
# in vivo [1] = assay: in vivo; set-up: species or system beagle dogs; conditions: dog; for half-life: two-dose inhalation
# Protocol: Once adequately conditioned to the restraint device and face-masks, the animals are individually exposed to the test article aerosols. Animals receive a single face-mask inhalation exposure in a ramp study design to test article aerosols for up to 60 min. Animal observations during and post exposure determine the tolerance of inhaled BisEDT aerosols.
# Blood Collections and Bioanalytical Analysis: Blood are collected for pharmacokinetic (PK) analysis prior to exposure, then at 4 hr (±5 min) post exposure, and again on Day 1, Day 2, Day 7 (pre- and 4 hr (±5 min)-post exposure), Day 8, Day 9, Day 10, Day 11, Day 12, Day 13, and Day 14. A total of 0.25 mL is collected at each timepoint. No PK blood is collected from the vehicle control (Group 1) animals; only animals exposed to BisEDT have blood collected for PK analysis. Collected samples are flash frozen without processing for shipment to Medpace for bioanalytical analysis. Additional blood is collected from all animals in all groups for hematology (1 mL) and clinical chemistry (1 mL) at baseline, Day 7 (pre-exposure), and again at euthanasia. Blood (2-2 mL) is collected from all animals at necropsy for coagulation analysis (d-Dimer, fibrinogen, PT, and PTT).
# Blood for pharmacokinetic analysis (0.25 mL) is collected into tubes containing K3EDTA as an anticoagulant.
# The left lobe of the lung is used for histopathology and will be fixed in 10% NBF. […] Liver, spleen, kidney, brain, heart, and respiratory tract are collected and fixed for potential, future analysis.
# A two-dose inhalation PK study in dogs was performed covering four doses from 50 μg/kg to 450 μg/kg lung deposited dose. […] The systemic half-life is approximately 4 days, and the lung tissue half-life is approximately 7 days.
# [2] = test system: MucilAir fully differentiated human airway epithelium
# in vivo [3] = assay: in vivo; set-up: species or system rat; conditions: for half-life / concentration at 24 hours / Kp: in vivo
# Source text: . Without being bound by any particular theory, it is believed BisEDT's low solubility provides slow dissolution and long exposure on lung surface fluids with limited systemic exposure via diffusion through lung epithelium. The lung appears to act as a depot for slow systemic exposure with about 10× lower systemic levels than seen in the lung. The terminal phase of the IV data appears to show slow elimination after initial tissue distribution (FIG. 36).
# . The NOAEL was established through clinical observation during and after treatment, gross necropsy, lung lavage analysis, clinical chemistry, and hematology results. […].
# [4] = test system: MucilAir fully differentiated human airway epithelium; remark: listed apart in the source
# E. coli ATCC 25922 = conditions: cited from earlier work
# [5] = test system: Gram-negative organisms (P. aeruginosa, E. coli, A. baumannii, H. influenzae); assay: Broth microdilution MIC with pulmonary surfactant (Survanta); type: cell-based; conditions: evaluated organisms, 1-10% Survanta
# [6] = test system: P. aeruginosa and A. baumannii; conditions: P. aeruginosa (MMX 103), QC; cited from earlier work
# [7] = Animals 4001 and 4004, Day 14 (7 days after last dose)
# [8] = rat, 24 hours after single inhalation dose
# [9] = rat, 4 days (96 hrs) after single dose
smiles,measurement,setting,value
"C1C[S][Bi]([S]CC[S][Bi]2[S]CC[S]2)[S]1 [BisEDT, Bismuth-1,2-ethanedithiol]",half-life,"in vivo [1]; beagle, in vivo, inhaled or intranasal, read-out: lung tissue half-life (converted)",~7 days
same,half-life,"in vivo [1]; beagle, in vivo, inhaled or intranasal, read-out: systemic half-life (converted)",~4 days
same,Tmax,"in vivo [1]; beagle, in vivo, inhaled or intranasal, whole blood, after both doses",~24 h
same,average blood level,in vivo [1]; [7],less than 20 ng/mL
same,lung tissue level,in vivo [1]; [7],"over 7,000 ng/g"
same,Morphology after exposure,"[2]; BisEDT in solution, all tested concentrations and time points",No morphology changes were observed
same,Morphology after exposure,"[2]; solid in dextran, 3.33 μg/cm^2, 24 and 48 h",Cells were rounded and opaque at the periphery of inserts
same,Morphology after exposure,"[2]; solid in dextran, 0.033 and 0.33 μg/cm^2",No morphological modifications were observed
same,Morphology after exposure,"[2]; solid, 1 μg/cm^2, 1 hour and 8 hour",no important morphological changes were observed
same,Morphology after exposure,"[2]; solid, 1 μg/cm^2, 24 h",the epithelial cells on 2 inserts out of 3 were dead
same,Morphology after exposure,"[2]; solid, 1 μg/cm^2, 48 h",the epithelial cells on all 3 inserts were dead
same,half-life,"in vivo [3]; 100 μg/kg, rat, after IV dosing, read-out: half-life of lung levels (converted)",~1 days
same,half-life,"in vivo [3]; inhaled or intranasal, 100 μg/kg, rat, after inhalation dosing, read-out: half-life in lung tissue (converted)",~4 days
same,concentration at 24 hours,"in vivo [3]; average rat, correlated from lung tissue level, read-out: concentration in lung epithelial lining fluid",150 to 175 µg/mL
same,half-life,"in vivo [3]; rat, longer-term single-dose and repeat-dose studies, read-out: half-life in lung tissue (converted)",4 to 7 days
same,lung surface fluid concentrations higher than total lung tissue concentrations,in vivo [3]; rat,approximately 30 fold
same,tolerability,"in vivo [3]; rat, 100 μg/kg inhalation and IV and 250 μg/kg oral",tolerated
same,equivalent concentration in lung fluid,in vivo [3]; [8],123 µg/mL
same,lung tissue concentration,in vivo [3]; [8],"4,093 ng/g"
same,equivalent concentration in lung fluid,in vivo [3]; [9],78 µg/mL
same,lung tissue concentration,in vivo [3]; [9],"2,600 ng/g"
same,lung levels after IV dosing vs inhalation group,"in vivo [3]; rat, IV",< 5%
same,Kp,"in vivo [3]; rat, rat, repeat dose TK, read-out: lung tissue exposure (AUC) greater than blood exposure",26
same,Kp,"in vivo [3]; rat, rat, read-out: lung fluid exposure (AUC) greater than systemic exposure",> 700
same,concentration at 24 hours,"in vivo [3]; rat, rats, doses near the NOAEL, 24 hours after dosing, read-out: lung tissue level (total wet lung tissue)",~5000 ng/g
same,LDH release,"[4]; BisEDT in solution 0.001-30 μM, 1, 8, 24, 48 h",not altered
same,LDH release (cytotoxicity),"[4]; solid, 1 μg/cm^2, 8, 24 and 48 h",time- and dose-dependent cytotoxicity
same,LDH release,"[4]; solid, 1 μg/cm^2, 1 hour",No significant effect
same,LDH release,"[4]; solid, 0.033 and 0.33 μg/cm^2, all time points",No significant effect
same,QC Range 24 hr,"E. coli ATCC 25922; E. coli ATCC 25922, established QC range, 24 hr",0.5-4
same,Expected MIC: goal (acceptable range),E. coli ATCC 25922; control strain ATCC 25922,1 µg/mL
same,effect of Survanta addition on MIC values,[5],largely unaffected
C[C@@H](O)[C@H]1C(=O)N2C(C(=O)O)=C(S[C@@H]3CN[C@H](C(=O)N(C)C)C3)[C@H](C)[C@H]12 [MEM],CLSI Quality Control Range (MIC),[6],(0.25-1)
